Test results taken from ChEMBL document CHEMBL1201862, “PubChem BioAssay data set” (2004).
Calls of active or inactive are those of the source.

Assays:
[1] = molecular target: T1, Coagulation factor XII (Homo sapiens, UniProt P00748); type: functional;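 note: activated factor XIIa alpha cleaving a fluorogenic AMC peptide substrate; inhibitor potency from loss of enzyme activity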
T1 sequence (P00748 whole entry): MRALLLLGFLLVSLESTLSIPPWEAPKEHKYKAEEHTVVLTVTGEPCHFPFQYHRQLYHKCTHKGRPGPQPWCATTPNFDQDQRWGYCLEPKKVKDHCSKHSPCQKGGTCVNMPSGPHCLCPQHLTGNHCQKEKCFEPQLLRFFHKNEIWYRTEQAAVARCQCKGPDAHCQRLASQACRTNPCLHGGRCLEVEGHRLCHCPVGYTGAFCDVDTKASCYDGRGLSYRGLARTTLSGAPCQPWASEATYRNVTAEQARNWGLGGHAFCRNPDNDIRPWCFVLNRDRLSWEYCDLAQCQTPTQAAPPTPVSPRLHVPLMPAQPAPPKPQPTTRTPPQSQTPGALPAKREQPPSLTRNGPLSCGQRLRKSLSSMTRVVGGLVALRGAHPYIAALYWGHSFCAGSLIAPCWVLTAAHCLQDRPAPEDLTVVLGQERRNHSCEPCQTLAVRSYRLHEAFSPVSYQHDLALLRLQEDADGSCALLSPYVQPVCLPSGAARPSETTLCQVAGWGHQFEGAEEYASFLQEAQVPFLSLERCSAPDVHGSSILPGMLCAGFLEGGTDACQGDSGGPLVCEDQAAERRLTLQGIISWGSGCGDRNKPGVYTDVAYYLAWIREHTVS

[2] = molecular target: T2, Ubiquitin-conjugating enzyme E2 N (Homo sapiens, UniProt P61088); type: functional;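 note: Dose-response confirmation in a TR-FRET assay detecting UBC13-driven polyubiquitin chain formation, inhibition measured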
T2 sequence (P61088 whole entry): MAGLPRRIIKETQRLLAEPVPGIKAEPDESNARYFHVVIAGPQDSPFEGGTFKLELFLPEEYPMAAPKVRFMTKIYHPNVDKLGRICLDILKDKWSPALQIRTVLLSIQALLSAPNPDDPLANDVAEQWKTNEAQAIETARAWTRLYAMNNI

[3] = molecular target: T3, Fatty acid synthase (Homo sapiens, UniProt P49327); experiment: inhibition of human FAS-TE enzyme activity – biochemical, endpoint fluorescence intensity, uHTS hits, dose response (AID 624327); type: functional;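 note: fluorescence from hydrolysis of an O-methyl fluorescein acyl ester substrate by the enzyme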
T3 sequence (P49327 whole entry): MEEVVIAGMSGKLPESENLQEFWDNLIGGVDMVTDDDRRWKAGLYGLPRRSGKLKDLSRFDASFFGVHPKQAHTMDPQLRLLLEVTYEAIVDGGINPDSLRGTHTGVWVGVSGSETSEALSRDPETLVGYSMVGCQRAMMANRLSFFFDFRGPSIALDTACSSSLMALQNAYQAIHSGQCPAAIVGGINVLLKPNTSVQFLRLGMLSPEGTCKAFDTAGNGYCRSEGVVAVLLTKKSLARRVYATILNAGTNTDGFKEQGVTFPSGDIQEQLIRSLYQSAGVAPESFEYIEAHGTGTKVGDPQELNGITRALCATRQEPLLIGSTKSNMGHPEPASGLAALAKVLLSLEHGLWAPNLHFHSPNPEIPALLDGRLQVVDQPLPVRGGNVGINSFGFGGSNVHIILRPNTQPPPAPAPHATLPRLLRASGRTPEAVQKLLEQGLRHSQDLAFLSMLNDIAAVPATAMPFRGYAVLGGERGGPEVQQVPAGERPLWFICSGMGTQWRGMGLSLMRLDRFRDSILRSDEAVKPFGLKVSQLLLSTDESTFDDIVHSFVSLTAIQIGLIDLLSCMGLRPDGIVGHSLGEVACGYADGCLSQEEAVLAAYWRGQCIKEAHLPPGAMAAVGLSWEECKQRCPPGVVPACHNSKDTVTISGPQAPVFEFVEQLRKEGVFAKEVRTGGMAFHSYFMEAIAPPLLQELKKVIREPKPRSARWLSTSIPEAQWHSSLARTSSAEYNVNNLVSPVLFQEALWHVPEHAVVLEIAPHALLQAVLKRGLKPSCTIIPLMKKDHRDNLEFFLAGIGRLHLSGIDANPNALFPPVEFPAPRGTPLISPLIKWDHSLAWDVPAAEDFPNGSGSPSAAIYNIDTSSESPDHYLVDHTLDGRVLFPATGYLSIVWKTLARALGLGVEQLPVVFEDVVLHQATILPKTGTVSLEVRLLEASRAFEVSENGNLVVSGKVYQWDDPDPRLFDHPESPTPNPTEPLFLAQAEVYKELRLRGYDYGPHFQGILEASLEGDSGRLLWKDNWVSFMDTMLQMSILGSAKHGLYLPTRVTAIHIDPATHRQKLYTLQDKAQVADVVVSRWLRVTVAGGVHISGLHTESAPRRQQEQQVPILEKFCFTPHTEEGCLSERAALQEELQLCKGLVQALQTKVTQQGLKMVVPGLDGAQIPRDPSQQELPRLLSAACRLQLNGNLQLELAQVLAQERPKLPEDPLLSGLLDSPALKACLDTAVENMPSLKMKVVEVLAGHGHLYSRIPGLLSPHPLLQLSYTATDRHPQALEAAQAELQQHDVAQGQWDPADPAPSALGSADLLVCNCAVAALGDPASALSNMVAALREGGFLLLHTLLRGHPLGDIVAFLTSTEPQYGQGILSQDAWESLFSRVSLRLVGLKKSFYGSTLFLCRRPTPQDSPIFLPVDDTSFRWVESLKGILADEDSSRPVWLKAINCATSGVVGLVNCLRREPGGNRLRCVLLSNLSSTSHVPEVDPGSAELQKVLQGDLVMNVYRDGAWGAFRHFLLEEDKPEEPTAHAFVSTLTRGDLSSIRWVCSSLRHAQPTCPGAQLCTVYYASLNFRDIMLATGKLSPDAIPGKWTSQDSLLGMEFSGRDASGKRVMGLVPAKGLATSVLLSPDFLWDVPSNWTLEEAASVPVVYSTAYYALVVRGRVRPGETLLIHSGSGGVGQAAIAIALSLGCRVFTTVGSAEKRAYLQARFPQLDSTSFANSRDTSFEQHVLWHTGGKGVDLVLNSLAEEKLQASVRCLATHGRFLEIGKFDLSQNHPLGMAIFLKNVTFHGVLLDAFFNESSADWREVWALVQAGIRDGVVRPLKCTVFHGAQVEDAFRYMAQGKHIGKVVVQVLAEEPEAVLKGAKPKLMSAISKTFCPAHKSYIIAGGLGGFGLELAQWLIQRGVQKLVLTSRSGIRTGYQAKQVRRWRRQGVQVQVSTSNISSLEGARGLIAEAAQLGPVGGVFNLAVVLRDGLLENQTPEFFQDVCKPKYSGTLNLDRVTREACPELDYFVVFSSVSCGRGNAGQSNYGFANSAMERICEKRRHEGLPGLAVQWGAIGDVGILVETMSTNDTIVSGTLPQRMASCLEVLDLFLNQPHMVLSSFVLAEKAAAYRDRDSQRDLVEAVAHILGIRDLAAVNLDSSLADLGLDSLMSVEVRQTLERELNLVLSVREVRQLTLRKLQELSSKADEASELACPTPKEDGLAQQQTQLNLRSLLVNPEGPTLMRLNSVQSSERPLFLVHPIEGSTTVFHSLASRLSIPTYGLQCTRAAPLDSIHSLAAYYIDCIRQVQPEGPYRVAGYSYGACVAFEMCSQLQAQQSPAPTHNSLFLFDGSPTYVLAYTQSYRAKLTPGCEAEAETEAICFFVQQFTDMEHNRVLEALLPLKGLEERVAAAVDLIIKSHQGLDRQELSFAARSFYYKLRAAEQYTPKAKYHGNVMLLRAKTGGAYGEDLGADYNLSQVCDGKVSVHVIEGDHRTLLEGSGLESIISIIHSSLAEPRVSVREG

[4] = molecular target: T3, Fatty acid synthase; experiment: inhibition of human FAS-TE enzyme activity – biochemical, kinetic fluorescence intensity, dose response (AID 624326); type: functional;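 note: rate of fluorescence rise from hydrolysis of a fluorogenic O-methyl fluorescein ester substrate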
[5] = system: HEK293; experiment: EBV LMP1 TES2 canonical NF-kB signalling blockers – cell-based, HEK293, luciferase, cherry-pick, dose response (AID 588343); type: functional; conditions: Homo sapiens
[6] = molecular target: Luciferin 4-monooxygenase (Photinus pyralis, UniProt P08659); experiment: inhibition of purified Photinus pyralis luciferase – biochemical, luminescence, dose response (AID 1891)
Sequence of Luciferin 4-monooxygenase (P08659 whole entry): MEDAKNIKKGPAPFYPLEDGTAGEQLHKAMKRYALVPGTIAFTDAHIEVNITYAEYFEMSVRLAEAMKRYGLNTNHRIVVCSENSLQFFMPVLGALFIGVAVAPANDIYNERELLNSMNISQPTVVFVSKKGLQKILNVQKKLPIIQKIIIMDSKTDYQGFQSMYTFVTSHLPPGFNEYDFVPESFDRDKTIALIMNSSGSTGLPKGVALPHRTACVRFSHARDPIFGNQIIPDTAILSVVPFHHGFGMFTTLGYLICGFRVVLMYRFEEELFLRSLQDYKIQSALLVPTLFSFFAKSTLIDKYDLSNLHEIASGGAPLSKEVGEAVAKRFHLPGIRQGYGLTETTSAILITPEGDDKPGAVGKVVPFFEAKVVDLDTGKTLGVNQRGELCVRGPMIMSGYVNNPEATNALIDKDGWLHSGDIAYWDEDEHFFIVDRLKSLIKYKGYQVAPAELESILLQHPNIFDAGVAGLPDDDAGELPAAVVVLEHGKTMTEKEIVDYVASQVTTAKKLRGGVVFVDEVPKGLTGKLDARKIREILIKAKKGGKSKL

[7] = Luminescence Cell-Based Dose Confirmation HTS to Identify Inhibitors of Platelet Dense Granule Release. [Related pubchem assays: 1663 (Primary HTS), 1678 (Summary of Project)]; type: functional
[8] = system: H9c2; experiment: cells; type: functional, cell-based; conditions: Rattus norvegicus, H9c2, Myocardium;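 note: confirmatory concentration-response retest of ultra-high-throughput screening hits for modulation of myocardial damage; cell death induced by hydrogen peroxide oxidative stress; compound pretreatment for 60 min then peroxide exposure for 2 h; potency is for protecting the cells against peroxide damage rather than for killing them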
[9] = luciferase reporter signal suppression in cells – H4 neuroglioma cells, luminescence, dose response (AID 1990); type: functional, cell-based
[10] = Luminescence Cell-Based Dose Response HTS to Identify Inhibitors of 5'UTR Stem-Loop Driven Prion Protein mRNA Translation in H4 Neuroglioblastoma Cells. [Related pubchem assays: 1827 (Project Summary), 1813 (Primary HTS)]; type: functional
[11] = alpha-synuclein stem-loop luciferase translation blockers – H4 neuroglioma cells, luminescence, confirmation (AID 1988); type: functional, cell-based
[12] = molecular target: T4, Protein skinhead-1 (Caenorhabditis elegans, UniProt P34707); type: functional
T4 sequence (P34707 whole entry): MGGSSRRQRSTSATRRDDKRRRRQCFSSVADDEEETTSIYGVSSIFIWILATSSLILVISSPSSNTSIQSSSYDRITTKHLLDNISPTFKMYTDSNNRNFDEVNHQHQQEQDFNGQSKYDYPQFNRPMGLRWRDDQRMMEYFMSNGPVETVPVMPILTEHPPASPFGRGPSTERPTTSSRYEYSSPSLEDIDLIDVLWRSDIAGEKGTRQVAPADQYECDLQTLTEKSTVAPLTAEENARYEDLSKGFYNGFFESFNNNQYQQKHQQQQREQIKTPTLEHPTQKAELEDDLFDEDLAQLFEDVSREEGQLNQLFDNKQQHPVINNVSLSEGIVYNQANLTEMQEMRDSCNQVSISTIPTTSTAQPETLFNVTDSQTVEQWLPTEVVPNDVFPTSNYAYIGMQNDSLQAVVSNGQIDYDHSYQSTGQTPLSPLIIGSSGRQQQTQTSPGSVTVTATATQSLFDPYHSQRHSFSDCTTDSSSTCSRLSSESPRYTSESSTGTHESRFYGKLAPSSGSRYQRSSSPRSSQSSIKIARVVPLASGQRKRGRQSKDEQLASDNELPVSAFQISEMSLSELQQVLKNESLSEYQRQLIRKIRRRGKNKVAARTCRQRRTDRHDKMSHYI

[13] = blockers of bursicon-stimulated LGR2 cAMP reporter – cell-based, HEK293, CRE-luciferase reporter, cherry pick, set 2, dose response (AID 743343); type: functional;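 note: transfected cells were stimulated with diluted bursicon conditioned medium after compound addition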
[14] = blockade of melanocortin 4 receptor signaling – cell-based, plate reader, cherry pick, counter-screen for LGR2 antagonist project, dose response (AID 743444); type: functional;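 note: transfected HEK 293 cells stimulated with alpha-MSH peptide; potency of inhibitors of the alpha-MSH evoked signal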
[15] = molecular target: T5, Calpain-2 catalytic subunit (Sus scrofa, UniProt P43367); experiment: m-calpain protease blockers, concentration series – biochemical, fluorogenic peptide substrate, dose response (AID 1420); type: functional
T5 sequence (P43367 whole entry): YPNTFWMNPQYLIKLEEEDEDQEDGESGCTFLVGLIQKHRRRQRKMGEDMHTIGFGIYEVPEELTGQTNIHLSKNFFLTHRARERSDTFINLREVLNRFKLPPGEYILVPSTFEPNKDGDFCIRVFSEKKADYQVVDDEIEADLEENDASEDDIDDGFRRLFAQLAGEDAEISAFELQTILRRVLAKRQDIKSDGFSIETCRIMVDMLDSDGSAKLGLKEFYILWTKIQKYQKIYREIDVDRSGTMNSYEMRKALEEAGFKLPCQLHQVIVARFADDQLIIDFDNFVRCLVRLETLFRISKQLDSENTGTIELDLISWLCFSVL

[16] = molecular target: FAD-linked sulfhydryl oxidase ALR (Homo sapiens, UniProt P55789); experiment: ALR-catalysed DTT oxidation blockers – biochemical, H2O2 detection, luminescence, cherry-pick, dose response (AID 493248)
Sequence of FAD-linked sulfhydryl oxidase ALR (P55789 whole entry): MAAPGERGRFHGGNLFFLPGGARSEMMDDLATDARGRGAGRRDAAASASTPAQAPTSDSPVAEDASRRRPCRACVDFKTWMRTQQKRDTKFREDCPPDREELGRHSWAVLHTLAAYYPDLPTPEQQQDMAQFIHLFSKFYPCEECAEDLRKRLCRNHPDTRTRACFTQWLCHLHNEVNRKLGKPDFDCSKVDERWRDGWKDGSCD

[17] = molecular target: T6, Corticotropin-releasing factor receptor 2/Corticotropin-releasing factor-binding protein (Homo sapiens, UniProt P24387+Q13324); experiment: activators of CRF receptor 2 with binding protein – uHTS hits, confirmation (AID 602473); type: functional; conditions: read-out: EC50_Mean
T6 sequence (Q13324 whole entry): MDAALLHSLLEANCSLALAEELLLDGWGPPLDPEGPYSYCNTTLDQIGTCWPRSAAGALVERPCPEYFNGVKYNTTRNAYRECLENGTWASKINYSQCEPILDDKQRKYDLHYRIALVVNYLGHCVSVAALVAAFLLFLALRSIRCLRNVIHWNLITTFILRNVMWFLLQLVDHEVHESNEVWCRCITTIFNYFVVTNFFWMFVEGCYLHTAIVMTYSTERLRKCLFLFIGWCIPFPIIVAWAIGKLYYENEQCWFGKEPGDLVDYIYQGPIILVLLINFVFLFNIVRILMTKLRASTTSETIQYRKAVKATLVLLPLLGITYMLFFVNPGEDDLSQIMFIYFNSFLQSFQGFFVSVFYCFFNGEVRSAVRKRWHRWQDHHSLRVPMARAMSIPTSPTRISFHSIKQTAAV
T6 sequence (P24387 whole entry): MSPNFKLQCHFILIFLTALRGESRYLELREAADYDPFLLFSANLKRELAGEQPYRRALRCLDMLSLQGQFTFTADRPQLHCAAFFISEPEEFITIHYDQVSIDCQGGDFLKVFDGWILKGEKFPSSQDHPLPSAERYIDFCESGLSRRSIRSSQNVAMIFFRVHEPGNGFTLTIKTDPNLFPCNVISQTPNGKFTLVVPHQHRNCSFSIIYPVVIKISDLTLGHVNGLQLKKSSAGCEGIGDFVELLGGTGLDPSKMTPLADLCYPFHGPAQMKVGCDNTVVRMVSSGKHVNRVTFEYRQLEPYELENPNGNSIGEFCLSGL

[18] = molecular target: Paired box protein Pax-8 (Homo sapiens, UniProt Q06710); experiment: PAX8 transcriptional activity inhibition in RMG-I – RMG-I cells, luciferase, cherry-pick, dose response (AID 687027); type: functional, cell-based;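 note: luciferase reporter driven by Pax8 target thyroperoxidase promoter measured by SteadyGlo luminescence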
Sequence of Paired box protein Pax-8 (Q06710 whole entry): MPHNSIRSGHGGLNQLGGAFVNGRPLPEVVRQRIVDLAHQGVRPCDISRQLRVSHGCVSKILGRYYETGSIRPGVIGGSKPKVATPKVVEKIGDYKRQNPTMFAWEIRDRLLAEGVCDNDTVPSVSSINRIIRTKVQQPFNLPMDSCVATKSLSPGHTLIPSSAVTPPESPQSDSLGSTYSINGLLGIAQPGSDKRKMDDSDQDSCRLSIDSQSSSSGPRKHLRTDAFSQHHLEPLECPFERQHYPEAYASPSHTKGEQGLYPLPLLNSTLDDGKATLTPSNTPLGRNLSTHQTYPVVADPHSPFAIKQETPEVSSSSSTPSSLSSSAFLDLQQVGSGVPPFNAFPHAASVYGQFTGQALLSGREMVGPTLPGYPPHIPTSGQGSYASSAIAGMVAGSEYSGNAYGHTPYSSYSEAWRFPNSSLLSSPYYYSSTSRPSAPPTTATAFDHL

[19] = OVCAR-3 cell viability loss – plate reader, dry powder samples, PAX8 inhibitor project, dose response (AID 743044); type: functional, cell-based

COC(=O)c1c(NC(=O)c2ccc(Br)s2)sc2c1CCC2
IC50 [1]: 44.4 µM (active)

O=C1c2cc(Cl)ccc2OC2(CCNCC2)C12CC(c1ccc(Cl)cc1)=NO2 (centres undefined)
IC50 [2]: > 20 µM (inactive)

O=C(CCNc1ccc(Br)cc1)c1cccc([N+](=O)[O-])c1
IC50 [3]: 13.3 µM (active)
IC50 [4]: 7.64 µM (active)

COc1ccc(C(=O)OC(C)C(=O)NC(C)CCc2ccccc2)cc1[N+](=O)[O-] (centres undefined)
IC50 [3]: 19.1 µM (active)
IC50 [4]: 17.9 µM (active)

O=C(NCc1ccc2c3c(cccc13)C(=O)N2)c1cccs1
IC50 [1]: > 50 µM (inactive)

Cc1c(NC(=O)c2ccc(Br)o2)cccc1C(=O)O
IC50 [1]: > 50 µM (inactive)

COc1ccc(Nc2oc(COc3ccc(Cl)cc3)nc2C#N)cc1
AC50 [5]: 4.08 µM (active)

Cc1ccccc1Cn1cnc2c(NS(C)(=O)=O)c(C)c(C)cc21
IC50 [1]: > 50 µM (inactive)

COC(=O)c1sc(NC(=O)c2ccc(OC)cc2OC)nc1C
EC50 [6]: 251 nM (active)
EC50 [7]: 749 nM (active)
AC50 [5]: 0.545 µM (active)

CNC(=O)COC(=O)/C=C/c1cn(-c2ccccc2)nc1-c1ccc(C)o1
IC50 [2]: > 20 µM (inactive)
IC50 [8]: > 79 µM (inactive)

COc1cc(SC)ccc1C(=O)Nc1ccc(Cl)cn1
EC50 [9]: 4.03 µM (inconclusive)
EC50 [10]: 1.33 µM (active)
EC50 [11]: 497 nM (active)
IC50 [12]: > 100 µM (inactive)
AC50 [13]: 1.59 µM (active)
AC50 [14]: 1.45 µM (active)

CCc1nc2ccccc2c(C(=O)OCCN2C(=O)c3ccccc3C2=O)c1C
IC50 [2]: > 20 µM (inactive)

CCn1cc(C(=O)NCc2cccnc2)c(=O)c2cc(F)c(N3CCN(C(=O)c4ccco4)CC3)cc21
IC50 [1]: > 50 µM (inactive)

O=C(COC(=O)c1cc([N+](=O)[O-])ccc1N1CCOCC1)NCc1ccc(F)cc1
IC50 [3]: 1.44 µM (active)
IC50 [4]: 1.33 µM (active)

Cc1noc(C)c1CSc1nc2ccccc2c(=O)n1-c1ccc(F)cc1F
IC50 [15]: 4.76 µM (not active)
IC50 [1]: > 50 µM (inactive)

Cc1c(Br)c([N+](=O)[O-])nn1CCCC(=O)N1CCN(c2ccccc2)CC1
IC50 [3]: 11.6 µM (active)
IC50 [4]: 13.1 µM (active)

N#CC1(NC(=O)COC(=O)c2cc([N+](=O)[O-])ccc2N2CCOCC2)CCCCC1
IC50 [3]: 3.79 µM (active)
IC50 [4]: 2.59 µM (active)

Cc1ccnc(NC(=O)c2sc3ccccc3c2Cl)c1
AC50 [5]: 1.46 µM (active)

COc1ccc(N2CCCn3c2nc2c3c(=O)n(Cc3ccc(C)cc3)c(=O)n2C)c(OC)c1
IC50 [1]: > 50 µM (inactive)

[O-][S+](NC1CCCCC1)C12CC3CC(CC(C3)C1)C2 (centres undefined)
IC50 [1]: > 50 µM (inactive)

O=C(Cn1nc(-c2ccco2)ccc1=O)Nc1ccc(Cl)c(Cl)c1
IC50 [3]: 13.1 µM (active)
IC50 [4]: 12.4 µM (active)

O=C(Oc1ccc2c(=O)c(Cl)coc2c1)c1ccncc1
IC50 [1]: 18 µM (active)

CC(C)(C)c1ccc(Oc2ccc(NC(=O)CCCC(=O)O)cn2)cc1
IC50 [1]: > 50 µM (inactive)
AC50 [16]: 1.49 µM (active)

O=C(O)CCN1C(=O)C2C3c4ccccc4C(c4ccccc43)[C@@H]2C1=O (some centres undefined)
IC50 [1]: > 50 µM (inactive)

C#CCOCCOCCOCCNc1nc(N2CCN(C(=O)[C@H](CCCN=C(N)N)n3cc(C(N)[C@@H](C)CC)nn3)CC2)nc(N2CCN(C(=O)[C@H](CCCCN)n3cc([C@@H](N)CC(N)=O)nn3)CC2)n1 (some centres undefined)
IC50 [2]: > 20 µM (inactive)

CCOC(=O)C1CCN(C(=O)c2ccc3c(=O)n4nc(Nc5ccccc5OC)sc4nc3c2)CC1
IC50 [8]: > 79 µM (inactive)
IC50 [3]: 12.4 µM (active)
IC50 [4]: 11.8 µM (active)

O=C(C[C@H]1C[C@H](C(=O)N2CCOCC2)[C@@]2(CCC3CCCC3)c3[nH]c4ccc(Cl)cc4c3CCN2C1=O)NCCN1CCOCC1
EC50 [17]: > 53 µM (inactive)
IC50 [3]: 2.04 µM (active)
IC50 [4]: 2.26 µM (active)

CC(C)(C)c1ccc(C(=O)N2CCC2(C)C(=O)NS(=O)(=O)c2ccc(C#N)cc2)cc1 (centres undefined)
IC50 [3]: 9.51 µM (active)
IC50 [4]: 8.79 µM (active)

OC1CCC(Nc2ccn3nc(-c4cccc(OCc5ccccc5)c4)cc3n2)CC1 (centres undefined)
AC50 [13]: 34.3 µM (active)
AC50 [14]: 37.1 µM (active)

COc1ccc2c3c(n(C)c2c1)[C@@H](CO)N(C(=O)Nc1ccc(F)cc1)CC31CCN(S(=O)(=O)c2cccc(C)c2)CC1
AC50 [18]: 5.97 µM (active)
AC50 [19]: 64 µM (active)

O=C(C[C@@H]1C[C@@H]2c3cc(NC(=O)Cc4ccncc4)ccc3O[C@@H]2[C@H](CO)O1)NCc1ccc(-c2ccccc2)cc1
AC50 [18]: 13.3 µM (active)
AC50 [19]: 37.8 µM (active)

C[C@H]1CN([C@@H](C)CO)C(=O)Cc2cc(NC(=O)NC3CCCCC3)ccc2O[C@H]1CN(C)S(=O)(=O)c1ccc(Cl)cc1
AC50 [18]: 11.9 µM (active)
AC50 [19]: 13.5 µM (active)

CO/N=C/c1ccc(Sc2ccccc2N)c([N+](=O)[O-])c1
IC50 [15]: 9.01 µM (not active)
IC50 [1]: > 50 µM (inactive)
